This is an account of results in the kinase profiling compilation of Christmann-Franck et al. (2016).

Structures are written as SMILES.

One experiment deals with SGK1 (human) (UniProt O00141). Kind of experiment: Flashplate.
Sequence of SGK1 (human) (O00141 whole entry, looked up): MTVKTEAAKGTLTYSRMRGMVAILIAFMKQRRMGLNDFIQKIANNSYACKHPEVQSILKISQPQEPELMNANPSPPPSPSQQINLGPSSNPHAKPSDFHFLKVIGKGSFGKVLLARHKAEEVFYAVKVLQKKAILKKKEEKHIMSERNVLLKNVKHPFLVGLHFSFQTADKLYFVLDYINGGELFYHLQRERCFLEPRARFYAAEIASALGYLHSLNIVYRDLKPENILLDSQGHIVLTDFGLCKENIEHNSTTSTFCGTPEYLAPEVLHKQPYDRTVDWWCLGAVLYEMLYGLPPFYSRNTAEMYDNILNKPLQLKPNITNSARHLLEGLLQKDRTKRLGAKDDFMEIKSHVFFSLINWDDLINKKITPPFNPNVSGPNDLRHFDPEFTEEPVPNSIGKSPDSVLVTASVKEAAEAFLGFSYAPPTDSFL
As for `Cc1n[nH]c2sc(C(=O)NCCc3ccc(Cl)cc3)cc12`, the Ki (in general, the dissociation constant of the complex between target and ligand, obtained from inhibition or displacement) stood at 3.98 µM.
On to `Cc1ccc(NC(=O)Nc2ccc(-c3csc4c(-c5cnn(C(C)C(=O)N(C)C)c5)cnc(N)c34)cc2)cc1` (stereo not given), for which the inhibition constant (Ki) was above 10 µM.
On the same count and under the same terms, as for `O=C1Nc2cc(CCOc3ccc(N4CCOCC4)cc3)ccc2Nc2cc(-c3cn(Cc4cc(F)c(F)c(F)c4)c4cnccc34)ccc21`, the figure is above 10 µM; as for `N#Cc1c(O)[nH]c(=O)c2c(=N)oc3ccc(Cl)cc3c12`, above 10 µM; as for `COc1ccc2c(c1)/C(=C/c1cnc[nH]1)C(O)=N2`, 1 µM.
Consider `COc1ccc(-c2cc3nccn3c(Nc3ccccc3C(N)=O)n2)cc1OC`, for which the Ki was above 10 µM.
Same read-out and setting: in the case of `O=C(O)c1cc2c(-c3ccccc3)cncc2s1` it was 3.98 µM.
Same read-out and setting: in the case of `Clc1csc2ncnc(Nc3ccccc3)c12` it was above 10 µM; in that of `Nc1nccc2scc(-c3ccc(NC(=O)Nc4ccccc4C(F)(F)F)cc3)c12`, above 10 µM.
`CC(=O)N1CCC(Nc2nccc(-c3c(-c4ccc(F)cc4)nc4occn34)n2)CC1` registered a Ki above 10 µM.
Take `c1cnc2nc(-c3ccc4[nH]ncc4c3)c(NC3CCCCC3)n2c1`: the Ki was determined as 2.51 µM.
The same measure, in the same setting: in the case of `O=C(NCc1ccc(Cl)c(Cl)c1)Nc1ccc2[nH]ncc2c1` it was 0.501 µM.
Same read-out and setting: in the case of `O=C(O)c1ccccc1Nc1ccnc(Nc2ccc3cn[nH]c3c2)n1` it was 0.2 µM; in that of `N#CCOc1ccc(Nc2nc(Nc3cccc(S(N)(=O)=O)c3)ncc2Br)cc1`, 0.398 µM.
Still for that read-out and setting: in the case of `N#CC1=C(N)n2c(s/c(=C\c3ccco3)c2=O)=C(C(N)=O)C1c1ccco1` (stereo not given) it was above 10 µM.
In turn, `CC(C)N(C(=O)Nc1ccc2nc(-c3ccco3)c(-c3ccco3)nc2c1)C(C)C` gave an inhibition constant (Ki) above 10 µM.
On the same count and under the same terms, in the case of `Cc1cc(Nc2ncc(F)c(N[C@H]3[C@@H](C(N)=O)[C@@H]4C=C[C@H]3C4)n2)ccc1N1CCN(C)CC1` it was 1.58 µM.
Still for that read-out and setting: in the case of `Nc1ncnc2c1N=C(c1ccc(NC(=O)Nc3cc(C(F)(F)F)ccc3F)cc1)CCN2` it was 2.51 µM; in that of `COc1cc2cnc3c(c2cc1OC)C(=O)NC3=O`, above 10 µM; in that of `Cc1nc(N)sc1-c1ccnc(Nc2ccc(N3CCOCC3)cc2)n1`, 0.251 µM.
On the same count and under the same terms, as for `OCCNc1cc2cc(-c3cccnc3)ccc2cn1`, the figure is 3.98 µM; as for `C#Cc1cc2c(cc1OC)-c1[nH]nc(-c3ccc(C#N)nc3)c1C2`, above 10 µM; as for `CC1=NN(c2ccccc2)C(=O)/C1=C/c1c(C)c(C#N)c2nc3ccccc3n2c1O`, above 10 µM.
Regarding `Cc1cc(C)c(/C=C2\C(=O)Nc3ccccc32)[nH]1`, the Ki worked out at 2 µM.
Still for that read-out and setting: as for `COc1cc(C(=O)O)c(Cl)cc1NC(=O)Nc1cnc(C#N)cn1`, the figure is above 10 µM; as for `C/C(=N/NC(=N)N)c1cc(NC(=O)c2cccc(C(=O)Nc3cc(/C(C)=N\NC(=N)N)cc(/C(C)=N/NC(=N)N)c3)c2)cc(/C(C)=N/NC(=N)N)c1`, 1.26 µM.
Same read-out and setting: as for `Nc1ncnc2scc(-c3ccc(NC(=O)Nc4ccccc4)cc3)c12`, the figure is 3.98 µM; as for `COc1ccc(-c2cc3nccn3c(Nc3ncccc3C(N)=O)n2)cc1OC`, above 10 µM.
`Cc1cccc(NC(=O)Nc2ccc(-c3csc4c(C#CCN)cnc(N)c34)cc2)c1` gave a Ki of 3.98 µM.
The same measure, in the same setting: in the case of `COc1ccc(C(=O)N2c3ccccc3Sc3c(Cl)cncc32)cc1` it was 0.398 µM.
On the same count and under the same terms, in the case of `O=C1NCCc2[nH]c(-c3ccncc3)cc21` it was 5.01 µM.
The same measure, in the same setting: in the case of `CC1CSc2c(C(=O)O)c(=O)c3cc(F)c(N4CC[C@@H](N)C4)c(F)c3n21` (stereo not given in full) it was above 10 µM; in that of `O[C@H]1CC[C@H](Nc2cc(Cl)nc(-c3c[nH]c4ncccc34)n2)CC1`, 1 µM.
Turning to `N[C@H](COc1cncc(/C=C/c2ccncc2)c1)Cc1c[nH]c2ccccc12`, the Ki amounted to 7.94 µM.
`CNC1CCN(c2nc3[nH]cc(C(=O)O)c(=O)c3c(C)c2Br)C1` (stereo not given) yielded a Ki above 10 µM.
Same read-out and setting: in the case of `COc1cccc(Nc2ncnc3ccccc23)c1` it was above 10 µM; in that of `COc1cc(C)c(Cl)cc1NC(=O)Nc1cnc(C#N)cn1`, above 10 µM; in that of `Nc1nonc1-n1nnc(C(=O)N/N=C/c2cccs2)c1-c1cccs1`, above 10 µM.
As to `NC1CCCCC1Nc1nccc(-c2c[nH]c3ncccc23)n1` (stereo not given), the Ki came out at 1.58 µM.
The compound `Cc1cc(C)c2c(n1)sc1c(N)ncnc12` displayed a Ki of 3.16 µM.
For `COc1ccc(C(=O)Nc2cnc3[nH]cc(-c4ccccc4)c3c2)cc1`, the Ki was found to be 10 µM.
Same read-out and setting: as for `CCOc1nc(C(=O)NCc2ccccc2S(N)(=O)=O)cc(N)c1Cl`, the figure is above 10 µM.
Same read-out and setting: in the case of `O=C1NC(=O)C(c2cnc3ccccn23)=C1c1cn2c3c(cc(F)cc13)CN(C(=O)N1CCCCC1)CC2` it was above 10 µM; in that of `Nc1ncc(/C=C/C(=O)NCCCn2ccnc2)c2scc(-c3ccc(Br)cc3)c12`, above 10 µM; in that of `C#Cc1cccc(Nc2ncnc3cc(OCCOC)c(OCCOC)cc23)c1`, above 10 µM.
The same measure, in the same setting: as for `COc1ccc(-c2ccc(NC(=O)Nc3cc(F)cc(F)c3)cc2)c2c(N)noc12`, the figure is above 10 µM; as for `Cc1ccccc1-c1c(C(=O)O)n(CCCOc2cccc3ccccc23)c2ccccc12`, above 10 µM.
`NC(=O)c1cc2c(-c3ccccc3)cncc2s1` yielded an inhibitory constant (Ki) of 5.01 µM.
Still for that read-out and setting: as for `O=C1NC(=S)S/C1=C1\C(=O)Nc2ccc(Br)cc21`, the figure is 2 µM; as for `Cc1cc(C)cc(NC(=O)Nc2ccc3c(c2)CCc2sc4ncnc(N)c4c2-3)c1`, above 10 µM.
The same measure, in the same setting: as for `Cc1cccc(NC(=O)Nc2ccc(-c3csc4c(-c5cn[nH]c5)cnc(N)c34)cc2)c1`, the figure is above 10 µM; as for `Brc1cnc2[nH]cc(-c3ccccc3)c2c1`, 1.58 µM.
In the case of `CCN1CCN(Cc2ccc(NC(=O)Nc3ccc(Oc4cc(NC)ncn4)cc3)cc2C(F)(F)F)CC1`, the Ki is above 6.31 µM.
Still for that read-out and setting: as for `Nc1n[nH]c2ccc(-c3nnn(Cc4ccccc4)c3I)cc12`, the figure is 0.0631 µM; as for `O=C1CCCc2oc3cc(C(F)(F)F)ccc3c(=O)c21`, above 10 µM; as for `NCCCn1cc(-c2cc(-c3cc4ccccc4s3)c3[nH]ncc3c2)c2nc(N)ncc21`, 0.501 µM.
`Cc1cnc(-c2cnc(NCCNc3ccc(C#N)cn3)nc2-c2ccc(Cl)cc2Cl)[nH]1` gave a Ki above 10 µM.
The same measure, in the same setting: in the case of `COc1cc2ncn(-c3cc(OCc4ccccc4C(F)(F)F)c(C(=O)O)s3)c2cc1OC` it was above 10 µM; in that of `O=c1[nH]c2sc3c(c2c2nc(-c4ccccc4)nn12)CCCC3`, above 10 µM.
The same measure, in the same setting: as for `Cc1cccc(NC(=O)Nc2ccc(-c3csc4c(C#CCN(C)C)cnc(N)c34)cc2)c1`, the figure is 6.31 µM; as for `NC(=O)Cn1cc(-c2cc(-c3cc4ccccc4s3)c3[nH]ncc3c2)c2nc(N)ncc21`, above 10 µM.
For the compound `Cc1cc(C)cc(NC(=O)Nc2ccc(-c3cccc4c3CNC4=O)c(C)c2)c1`, the Ki is above 10 µM.
Same read-out and setting: in the case of `CC(C)(C)c1cc(NC(=O)Nc2cccc3ccccc23)n(-c2cccc(C(=O)NCC#N)c2)n1` it was above 10 µM.
Regarding `Cc1n[nH]c2ccc(-c3cncc(OC[C@@H](N)Cc4cccc(Cl)c4)c3)cc12`, the Ki is 0.158 µM.
Still for that read-out and setting: as for `NC(=O)c1cc2c(-c3ccc(F)cc3F)cncc2s1`, the figure is 1.26 µM; as for `CCc1nc(-c2cccc(C)c2)c(-c2ccnc(NC(=O)c3ccccc3)c2)s1`, above 10 µM.
For `Cc1ccc(C(=O)Nc2ccon2)cc1Nc1ncnc2c1cnn2-c1ccccc1`, the Ki was above 10 µM.
In the case of `COc1cc(Nc2nccc(Nc3cc(C4CCCCC4)no3)n2)cc(OC)c1OC`, the Ki is above 10 µM.
Still for that read-out and setting: as for `Cc1cc(C)cc(NC(=O)Nc2ccc(-c3cccc4sncc34)cc2)c1`, the figure is above 10 µM; as for `O=C1NCCc2[nH]c(-c3ccnc(/C=C/c4ccccc4)c3)cc21`, 1 µM.
Still for that read-out and setting: in the case of `CN1CCC[C@H]1COc1cncc(CCc2ccccc2)c1` it was above 10 µM.
`CCCC(=O)Nc1n[nH]c2nnc(-c3cccc(F)c3F)cc12` returned a Ki above 10 µM.
In turn, `O=C1CCCN1Cc1ccc2c(c1)[nH]c(=O)c1cccn12` had a Ki above 10 µM.
With `NCC(NC(=O)c1ccc(-c2ccncc2)cc1)c1ccccc1` (stereo not given), the Ki came to 0.316 µM.
`Cc1cccc(NC(=O)Nc2ccc(-c3cccc4[nH]ncc34)cc2)c1` displayed a Ki of 2 µM.
Same read-out and setting: in the case of `CCCCOc1ncnc2[nH]cc(-c3ccccc3)c12` it was 2.51 µM; in that of `CNS(=O)(=O)c1ccccc1Nc1nc(Nc2cc(N3CCN(C(C)=O)CC3)ccc2OC)ncc1Br`, above 10 µM.
Turning to `O=c1[nH]c2cc(Cl)cc(Cl)c2c(-c2cc(Cl)ccc2O)c1O`, the Ki was above 10 µM.
Still for that read-out and setting: in the case of `COc1cc(/C=C2/SC(=S)NC2=O)ccc1O` it was 3.16 µM; in that of `N[C@H](COc1cncc(-c2ccc3c(c2)/C(=C/c2ccco2)C(=O)N3)c1)Cc1c[nH]c2ccccc12`, 0.0251 µM.
The compound `O=S(=O)(O)c1ccc(NCc2ccc3c(c2)OCO3)c2c(O)cccc12` gave an inhibition constant (Ki) above 10 µM.
On the same count and under the same terms, as for `CN1CC[C@@H](c2c(O)cc(O)c3c(=O)cc(-c4ccccc4Cl)oc23)[C@@H](O)C1`, the figure is above 10 µM; as for `Cc1cccc(Nc2nccc(Nc3c(N[C@H](C)C(C)(C)C)c(=O)c3=O)n2)c1`, 1 µM.
`O=C(Cc1ccccc1)Nc1cccc(-c2nc3sccn3c2-c2ccnc(Nc3cccc(N4CCOCC4)c3)n2)c1` gave a Ki above 10 µM.
`CNC(=O)C(C)n1cc(-c2cnc(N)c3c(-c4ccc(NC(=O)Nc5ccc(C)cc5)cc4)csc23)cn1` (stereo not given): the Ki was above 10 µM.

For another experiment, the target named is CLK4 (human) (UniProt Q9HAZ1). Kind of experiment: Flashplate.
Sequence of CLK4 (human) (Q9HAZ1 whole entry, looked up): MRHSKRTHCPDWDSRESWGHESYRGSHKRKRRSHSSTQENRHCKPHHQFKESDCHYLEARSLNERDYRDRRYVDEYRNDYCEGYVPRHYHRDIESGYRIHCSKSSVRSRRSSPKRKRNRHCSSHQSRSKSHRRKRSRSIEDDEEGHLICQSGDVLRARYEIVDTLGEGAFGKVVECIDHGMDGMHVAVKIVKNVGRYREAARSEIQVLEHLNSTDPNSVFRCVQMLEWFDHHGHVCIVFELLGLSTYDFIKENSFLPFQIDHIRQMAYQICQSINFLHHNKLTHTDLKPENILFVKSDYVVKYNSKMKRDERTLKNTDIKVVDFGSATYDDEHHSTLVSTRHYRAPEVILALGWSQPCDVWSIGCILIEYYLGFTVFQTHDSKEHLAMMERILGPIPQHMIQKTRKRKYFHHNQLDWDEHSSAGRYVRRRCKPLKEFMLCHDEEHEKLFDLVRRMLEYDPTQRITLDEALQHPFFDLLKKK
`Oc1cc(Cc2nc3ccccc3[nH]2)nn1-c1ccccc1` displayed a Ki of 1.26 µM.

Another experiment deals with CDC7 (human) (UniProt O00311). Kind of experiment: Flashplate.
Sequence of CDC7 (human) (O00311 whole entry, looked up): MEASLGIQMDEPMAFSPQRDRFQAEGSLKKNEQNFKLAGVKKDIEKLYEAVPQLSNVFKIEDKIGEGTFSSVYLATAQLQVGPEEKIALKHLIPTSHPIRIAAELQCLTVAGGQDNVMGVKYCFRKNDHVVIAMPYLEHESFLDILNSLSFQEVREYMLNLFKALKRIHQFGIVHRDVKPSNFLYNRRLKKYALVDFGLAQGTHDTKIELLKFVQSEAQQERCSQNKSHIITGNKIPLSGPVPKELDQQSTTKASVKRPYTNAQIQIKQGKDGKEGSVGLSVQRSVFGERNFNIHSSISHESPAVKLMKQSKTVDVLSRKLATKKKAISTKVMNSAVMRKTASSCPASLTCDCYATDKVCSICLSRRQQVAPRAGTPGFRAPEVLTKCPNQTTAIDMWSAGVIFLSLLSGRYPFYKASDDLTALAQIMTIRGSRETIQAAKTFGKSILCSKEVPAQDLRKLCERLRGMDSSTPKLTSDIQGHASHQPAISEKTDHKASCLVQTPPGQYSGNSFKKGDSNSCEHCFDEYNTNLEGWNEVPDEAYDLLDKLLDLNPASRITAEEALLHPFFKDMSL
`CN(C)c1ccc(-c2c(-c3ccc4[nH]nc(N)c4c3)nnn2Cc2ccccc2)cc1` yielded a Ki of 0.000398 µM.
Still for that read-out and setting: as for `O=[N+]([O-])c1ccc(-n2nc(-c3ccncc3)cc2O)cc1`, the figure is 0.501 µM.

The target in the next experiment is CDK19 (human) (UniProt Q9BWU1). Kind of experiment: Flashplate.
Sequence of CDK19 (human) (Q9BWU1 whole entry, looked up): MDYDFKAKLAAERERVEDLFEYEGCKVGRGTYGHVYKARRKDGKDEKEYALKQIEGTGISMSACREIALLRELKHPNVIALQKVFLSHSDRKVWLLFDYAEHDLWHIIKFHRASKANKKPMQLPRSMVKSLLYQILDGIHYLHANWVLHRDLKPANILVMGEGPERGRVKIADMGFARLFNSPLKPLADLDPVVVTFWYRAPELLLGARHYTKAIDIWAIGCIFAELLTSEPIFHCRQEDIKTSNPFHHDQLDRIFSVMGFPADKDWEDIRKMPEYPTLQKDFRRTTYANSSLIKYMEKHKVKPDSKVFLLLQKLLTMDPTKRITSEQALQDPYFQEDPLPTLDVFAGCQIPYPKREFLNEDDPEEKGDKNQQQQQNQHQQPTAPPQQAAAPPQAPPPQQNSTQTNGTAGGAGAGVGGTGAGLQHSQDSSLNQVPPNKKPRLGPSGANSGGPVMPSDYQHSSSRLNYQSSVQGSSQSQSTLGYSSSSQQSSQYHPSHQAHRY
`Oc1cc(Cc2nc3ccccc3[nH]2)nn1-c1ccccc1` showed a Ki above 100 µM.
In the case of `O=[N+]([O-])c1ccc(-n2nc(-c3ccncc3)cc2O)cc1`, the Ki was above 100 µM.
